Results on 4 compounds are retold here after PubChem BioAssay AID602335 (The Scripps Research Institute Molecular Screening Center, 2012).

Experiment [1] concerns the target Diacylglycerol lipase-beta (Mus musculus) (UniProt Q91WC9). Description: ABHD6 anti-target inhibition potency, dose response, selectivity assay for DAGLb inhibitor project, cell-based, gel-based competitive ABPP, fluorescence, in situ (AID 602335). The conditions noted are these: DAGLb.
The target of experiment [2] is Monoacylglycerol lipase ABHD6 (Mus musculus) (UniProt Q8R2Y0). The description is as above.

The term IC50 denotes the midpoint of a concentration-inhibition curve.

The source made the active and inactive calls. No rule for the calls is given here. Bounds are passed on as bounds.

Sequence of Diacylglycerol lipase-beta (Mus musculus) (Q91WC9 whole entry, looked up): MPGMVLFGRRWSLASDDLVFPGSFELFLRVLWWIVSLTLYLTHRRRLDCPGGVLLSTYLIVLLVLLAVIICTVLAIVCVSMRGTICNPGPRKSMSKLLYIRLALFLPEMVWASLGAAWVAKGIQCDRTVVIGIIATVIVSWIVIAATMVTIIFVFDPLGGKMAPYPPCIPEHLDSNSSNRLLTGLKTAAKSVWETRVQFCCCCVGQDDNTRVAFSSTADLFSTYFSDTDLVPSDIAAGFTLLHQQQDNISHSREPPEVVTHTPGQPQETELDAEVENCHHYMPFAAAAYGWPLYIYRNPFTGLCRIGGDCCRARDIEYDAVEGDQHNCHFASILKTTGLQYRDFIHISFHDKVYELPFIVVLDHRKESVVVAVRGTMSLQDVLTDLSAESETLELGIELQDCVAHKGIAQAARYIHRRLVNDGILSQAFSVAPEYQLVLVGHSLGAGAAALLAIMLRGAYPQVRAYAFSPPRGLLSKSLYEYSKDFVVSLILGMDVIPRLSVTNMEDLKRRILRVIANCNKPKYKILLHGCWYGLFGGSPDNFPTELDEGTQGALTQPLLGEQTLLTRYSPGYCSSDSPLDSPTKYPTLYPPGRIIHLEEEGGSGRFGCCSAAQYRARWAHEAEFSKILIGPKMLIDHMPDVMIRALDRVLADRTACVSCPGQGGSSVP
Sequence of Monoacylglycerol lipase ABHD6 (Mus musculus) (Q8R2Y0 whole entry, looked up): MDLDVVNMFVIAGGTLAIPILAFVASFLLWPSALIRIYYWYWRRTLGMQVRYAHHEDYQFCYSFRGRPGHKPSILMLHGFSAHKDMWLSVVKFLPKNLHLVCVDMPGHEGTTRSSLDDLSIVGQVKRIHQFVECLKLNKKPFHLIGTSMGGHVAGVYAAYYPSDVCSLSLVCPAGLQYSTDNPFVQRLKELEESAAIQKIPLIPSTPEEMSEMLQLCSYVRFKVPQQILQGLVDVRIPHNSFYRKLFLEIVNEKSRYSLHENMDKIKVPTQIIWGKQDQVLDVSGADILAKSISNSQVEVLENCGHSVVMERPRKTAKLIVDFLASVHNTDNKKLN

Turning to `O=C(N1CCCCC1c1ccccc1)n1cc(-c2ccc(-c3cccc(CO)c3)cc2)nn1` (stereo unspecified), the IC50 in experiment [1] is > 100 nM (inactive). For `O=C(N1CCCCC1c1ccccc1)n1cc(-c2ccc(-c3ccccc3)cc2)nn1` (stereo unspecified), the IC50 in experiment [1] was > 100 nM (inactive); in experiment [2], 0.17 nM. In the case of `O=C(O)c1cccc(-c2ccc(-c3cn(C(=O)N4CCCCC4Cc4ccccc4)nn3)cc2)c1` (stereo unspecified), the IC50 in experiment [1] was > 100 nM (inactive). Consider `COc1ccc(-c2ccc(-c3cn(C(=O)N4CCCCC4c4ccccc4)nn3)cc2)cc1` (stereo unspecified), for which the values for the IC50 in experiment [1] and in experiment [2] were > 100 nM (inactive) and 1.3 nM, respectively.
